System: RAW264.7 cells stimulated with LPS
Experiment: Measurement of osteoclast formation (TRACP-positive MNCs)
Format: cell-based, mouse
Protocol: Cells (1×10^5 cells/1 ml per well in a 24-well plate) were cultured for 3 days in DMEM containing 10% FBS, 1% P/S, and 1% fungizone in the control group (1% ethanol as final concentration) and in the DHMBA-treated group (0.1, 1, 10, or 100 μM) with or without LPS (100 ng/ml). The old culture medium was replaced with fresh conditioned culture medium (0.5 ml) containing LPS and/or DHMBA, and the cells were cultured for another 3 days (FIG. 9A). Cells (1×10^5 cells/1 ml per well in a 24-well plate) were cultured for 3 days in the above DMEM culture medium with LPS (100 ng/ml) but without DHMBA. […] TRACP-positive multinucleated cells (MNCs) (with 3 or more nuclei) were counted as osteoclast-like cells under a microscope (40× magnification). […]
RAW264.7 cells (1×10^5 cells/1 ml per well in a 24-well plate) were cultured for 3 days in a DMEM culture medium containing 10% FBS, 1% P/S, and 1% fungizone in the control group (1% ethanol in the culture medium as final concentration) and the LPS-treated group (100 ng/ml in the culture medium) with or without DHMBA (0.1, 1, 10, or 100 μM). […] TRACP-positive multinucleated cells (MNCs) having three or more nuclei were counted as osteoclast-like cells under a microscope (40× magnification) (Olympus MTV-3; Olympus Corp., Tokyo, Japan). […]

In the case of `COc1c(O)cc(CO)cc1O` [DHMBA, 3,5-dihydroxy-4-methoxybenzyl alcohol], the “LPS-enhanced osteoclast formation, late stage” value (3 days LPS 100 ng/ml alone, then 3 days LPS plus DHMBA 0.1, 1, 10 or 100 μM) is reported as “suppressed” and the LPS-enhanced osteoclast formation (LPS 100 ng/ml and DHMBA 0.1, 1, 10 or 100 μM together for 6 days) is reported as “suppressed”.

From patent US20260041649A1, “ANTI-INFLAMMATORY AGENT” (WATANABE OYSTER LABORATORY, CO., LTD., priority 2023, published 2026)
